Residues, ends and D or L forms follow the SMILES beside them. *: point of attachment. Cbz = O=C(OCc1ccccc1)*; CH2F = FC*

For test [1], the system named is EGFR. Briefly: EGFR phosphorylation (tyr1068) in U87MG-EGFR cells (Western blot). The class given is cell-based. The following applies: added to CuGTSM-treated cells (25 μM CuGTSM). Here is the method:
Transfected U87MG-EGFR cells were treated with 25 μM CuGTSM or DMSO as vehicle control for 5 hr and EGFR phosphorylation (tyr1068) determined by Western blot. Antisera to EGFRtyr1068 was routinely used as this is one of the critical tyrosine residues involved in EGFR activation and downstream signaling. It is also routinely reported in the literature on EGFR activation.
Background: In western blotting, separated proteins are transferred to a membrane and probed.

Test [2] concerns ERK, GSK3 and JNK. The test can be described thus: Downstream phosphorylation of ERK, GSK3 and JNK in U87MG-EGFR cells (Western blot). Type of test: cell-based. The following applies: 25 μM CuGTSM plus 10 μM PD153035; not completely ablated.
Method: A study was carried out to determine if kinase pathways modulated by CuGTSM were mediated by activation of EGFR. This was done by treating U87MG-EGFR cells with 25 μM DMSO, CuGTSM, CuGTSM plus 10 μM PD153035 (EGFR inhibitor), or 10 μM PD153035 alone. The activation of ERK, GSK3 and JNK was then determined by Western blot.
For test [3], the system named is G93A-SOD1 mice. To be noted: other reported pharmacological treatments (literature); cited from earlier work.
Test [4] relates to APP-transfected CHO cells. Briefly: Cellular zinc uptake of Zn-BTSC complexes (ICP-MS), with or without Cu2+. The class given is cell-based, Chinese Hamster. The following applies: 6 hr. On the procedure:
It was known that copper can transmetallate [Zn(BTSC)] complexes. Therefore, if [Zn(BTSC)] complexes were administered to the culture medium in the presence of exogenous Cu^2+, we would expect [Cu(BTSC)] complexes to form. To examine this, cells were exposed to 10 μM [Zn(ATSE)] or [Zn(ATSP)] with or without 5-50 μM Cu^2+ for 6 hr.
Supernatant was discarded and cell pellets frozen at −70° C. until metal levels were determined by inductively-coupled plasma mass spectrometry (ICP-MS) at the Department of Pathology, University of Melbourne. […] [Zn(ATSM)] and [Zn(ATSE)] induced 8.2±0.25 and 9.8±0.9-fold increases in cellular Zn levels respectively when compared to untreated controls (FIG. 2).
To examine this, cells were exposed to 10 μM [Zn(ATSE)] or [Zn(ATSP)] with or without 5-50 μM Cu^2+ for 6 hr. Co-treatment of cells with Cu and the Zn-BTSC complexes reduced the level of Zn uptake compared to Zn-BTSC alone (FIG. 5).

Test [5] deals with Aβ1-40. The test can be described thus: Extracellular Aβ1-40 in conditioned medium of APP-CHO cells (ELISA). The class given is cell-based, Chinese Hamster. To be noted: 6 hr; for effect on Aβ1-40 levels at lower dose: 1 μM. On the procedure:
[…] treatment regimes were used namely a control, 1 μM, 5 μM, 10 μM, 25 μM and 50 μM (FIG. 3). APP-transfected CHO cells were treated with each of the doses of [Cu(GTSM)] for 6 hr in serum-free medium and conditioned medium was then collected and assayed for Aβ1-40 peptide by routine […].
Five treatment regimes were used namely a control, 1 ? M, 5 ? M, 10 ? M, 25 ? M and 50 ? M (FIG. 4). APP-transfected CHO cells were treated with each of the doses of [Zn(BTSC)] for 6 hr in serum-free medium and conditioned medium was then collected and assayed for Aβ1-40 peptide by routine Aβ ELISA.
Generation of APP-transfected Chinese Hamster Ovary (CHO) APP-CHO cells were generated by expressing the 695-amino acid APP cDNA in the pIRESpuro2 expression vector (Clontech, Mountain View, Calif., USA). Cells were transfected using Lipofectamine 2000 and cultured in RPMI-1640 media supplemented with 1 mM glutamine and 10% fetal bovine serum (all from Invitrogen, Mount Waverley, Victoria, Australia). Transfected cells were selected and maintained using 7.5 μg/ml puromycin (Sigma-Aldrich).
Treatment of cells with Complexes. APP-CHO cells were passaged at a ratio of 1:5 and grown in 6 well plates for 3 days before experiments. Compounds were prepared as a 10 mM stock solution in DMSO and added to serum-free RPMI medium supplemented with puromycin. Medium was briefly mixed by aspiration prior to addition to cells. Control cultures were treated with vehicle (DMSO) alone. Cultures were incubated for 6 hr and conditioned media taken for measurement of […] levels by ELISA.
Double antibody capture enzyme-linked immunosorbent assay (ELISA) for Aβ detection. Aβ levels were determined in culture medium using the 384 well Aβ1-40 ELISA protocol. 384 well plates were coated with monoclonal antibody (mAb) G2-10 in carbonate-bicarbonate coating buffer (pH 9.6) for Aβ1-40 detection. The plates were left to incubate overnight at 4° C. with rocking. The plates were then washed three times with PBST at RT with rocking and the solution discarded after each wash. Then 100 μL of 0.5% (w/v) hydrolyzed casein in PBS (pH 7.4) was added to each well and left to incubate for 2 hr at 37° C. to prevent non-specific binding. The plates were then washed three times with PBST at RT with rocking. 20 ng of biotinylated mAb WO2 (epitope at Aβ5-8) was added to each well of the plates (10 μL/well at […]). 50 μL/well of Aβ1-40 standard peptide samples (MHRI, Melbourne, Australia), cell culture medium samples and the blanks were added. The plates were left to incubate overnight at 4° C. with rocking. The plates were washed nine times with PBST at RT with rocking. 25 μL streptavidin-labelled europium was added at a dilution of 1:1000. Plates were then washed ten times with PBST where the 9th and 10th wash was left on for 5 min before discarding. To develop the plates 80 μL of enhancement solution was added to each well and plates were read in a WALLAC Victor^2 plate reader with excitation (Ex) at 340 nm and emission (Em) at 613 nm. Aβ1-40 peptide standards and samples were assayed in triplicate. The values obtained from the triplicate wells were used to calculate the […] concentration (expressed as ng/mL) based on the standard curve generated on each plate and are given in Table 3.
APP-CHO cells were treated with 10 μM [Zn(ATSE)] with or without specific inhibitors of PI3K (LY294002), JNK (SP600125) or p38 (SB203580) (25 μM of each) for 6 hr and conditioned medium analyzed for levels of Aβ1-40 by routine ELISA.

Test [6] deals with PI3K (Akt phosphorylation). The test can be described thus: Western blot for PI3K activation (Akt phosphorylation) in APP-CHO cells. The class given is cell-based, Chinese Hamster. The following applies: 10 μM, 6 hr. On the procedure:
(§1) APP-CHO cells were treated with 10 μM metal-BTSC complexes for 6 hr and cell lysates examined for activation of PI3K and MAPK signal pathways.
(§2) APP-CHO cells were treated with 10 μM metal-BTSC complexes for 6 hr. Cells were extracted into Phosphosafe (Novagen) lysis buffer and proteins separated by gel-electrophoresis on 12% tris-glycine gels. Proteins were transferred to PVDF membranes and blocked with milk powder for 1 hr. Blots were then probed for total and phosphorylated forms of Akt, JNK and GSK3 using antibodies from Cell Signaling Technologies. After detection with secondary antisera (HRP-labelled), blots were analyzed for signals using chemiluminescence analysis on a GeneGnome image scanner. Activation of PI3K is shown by increased levels of phosphorylated Akt (p-Akt). Activated JNk is shown by increased p-JNK. Increased levels of deactivated GSK3 is shown by increased p-GSK3.

Test [7] has as its system JNK. The test can be described thus: Western blot for JNK activation (p-JNK) in APP-CHO cells. The class given is cell-based, Chinese Hamster. To be noted: 10 μM, 6 hr. Here is the method: as §1, §2
The subject of test [8] is GSK3. The test can be described thus: Western blot for GSK3 phosphorylation and expression in APP-CHO cells. Type of test: cell-based, Chinese Hamster. The following applies: 10 μM, 6 hr. On the procedure: as §1, §2

With `COc1cc2ncnc(Nc3cccc(Br)c3)c2cc1OC` [PD153035], the “effect on CuGTSM-induced activation of EGFR” value in test [1] is “inhibited activation”. In test [2], the “CuGTSM-induced phosphorylation of JNK, GSK3 and ERK” value is “decrease”.
In the case of `COC(=O)C[C@H](NC(=O)[C@H](C)NC(=O)[C@@H](NC(=O)OCc1ccccc1)C(C)C)C(=O)CF` [zVAD-fink] (Cbz-Val-Ala-Asp(OMe)-CH2F), the “Increased Life Span” value in test [3] is recorded as 27 days.
`Nc1nc2ccc(OC(F)(F)F)cc2s1` [Riluzole]: the “Increased Life Span” value in test [3] is 10 to 15 days.
On to `CCNC1=NN=C(C)C(C)=NN=C(NCC)[S][Zn][S]1` [[Zn(ATSE)]], for which the “fold increase in cellular zinc levels” value in test [4] (10 μM complex alone) is on record as 9.7±0.7 fold. The “fold increase in intracellular zinc” value in test [4] (10 μM complex in the presence of 10 μM Cu2+) came out at 2.9±0.3 fold. Besides, in test [4] (APP-CHO cells, 1-50 μM, vs untreated controls), the “fold increases in cellular Zinc levels” value came to 9.8±0.9 fold. Besides, the “effect on Aβ1-40 levels at lower dose” value is reported as “greater reductions” in test [5] and “inhibited” in test [5] (listed as Zn-ATSE). The “activation of PI3K (Akt phosphorylation)” value in test [6] is on record as “induced activated”. Besides, the “activation of JNK” value in test [7] is “induced activated”. Also, the GSK3 expression entry in test [8] was “increased”. Moreover, in test [8], the “phosphorylation (de-activation) of GSK3” value is “induced down-stream phosphorylation”.
Turning to `CC(=N\NC([S-])=Nc1ccccc1)/C(C)=N/NC([S-])=Nc1ccccc1.[Cu+2]` [CuATSP], the “activation of PI3K (Akt phosphorylation)” value in test [6] is reported as “did not induce activation”. Besides, the “activation of JNK” value in test [7] was “did not induce activation”.
For the compound Vitamin E, the “Increased Life Span” value in test [3] is given as “No effect”.
With `CC1=[N+]2N=C(Nc3ccccc3)[S][Zn]23[S]C(Nc2ccccc2)=N[N+]3=C1C` [[Zn(ATSP)]], in test [6], the “activation of PI3K (Akt phosphorylation)” value was “did not induce activation”. Further, the “activation of JNK” value in test [7] is recorded as “did not induce activation”. Further, the GSK3 expression result in test [8] is listed as “small increase”.
Regarding `CCN1C=CN(CC)C1=C1C2=NC(=C(c3n(CC)cc[n+]3CC)C3=NC(=C(c4n(CC)cc[n+]4CC)c4ccc([n-]4)C(c4n(CC)cc[n+]4CC)=C4C=CC1=N4)C=C3)C=C2.[Cl-].[Cl-].[Cl-].[Cl-].[Cl-].[Mn+3]` [AEOL 10150], in test [3], the “Increased Life Span” value is on record as 20 days.
For the compound `CCNC1=NN=C2CCCCC2=NN=C(NCC)[S][Zn][S]1` [[Zn(ChexTSE)]], the “effect on Aβ1-40 levels at lower dose” value in test [5] is “greater reductions”; in test [5] (listed as Zn-Chex TSE), “inhibited”.
With `CNC(=S)NN=CC=NNC(=S)NC` [GTSMH2], in test [5] (1-50 μM, serum-free medium), the “effect on extracellular Aβ1-40 levels” value is on record as “very small reduction”.
For `CO/N=C(\C(=O)N[C@@H]1C(=O)N2C(C(=O)O)=C(CSc3nc(=O)c(=O)[nH]n3C)CS[C@H]12)c1csc(N)n1` [Ceftriaxone], the “Increased Life Span” value in test [3] was 10 days.
As to `CCNC1=N[N+]2=C(C)C(C)=[N+]3N=C(NCC)[S][Cu-2]23[S]1` [CuATSE], the “activation of PI3K (Akt phosphorylation)” value in test [6] was “did not induce activation”. In addition, in test [7], the “activation of JNK” value is on record as “did not induce activation”.
With `CN(CC(=O)O)C(=N)N` [Creatine], the “Increased Life Span” value in test [3] was 20 days.
As for `C[S+]([O-])c1ccc(-c2nc(-c3ccncc3)c(-c3ccc(F)cc3)[nH]2)cc1` (stereo not shown) [SB203580, reference compound], the “effect of kinase inhibitor on the loss of Aβ by [Zn(ATSE)]” value in test [5] (25 μM inhibitor with 10 μM [Zn(ATSE)]) is “no effect”.
